Laboratory results taken from patent US11338006B2, “Composition and method for promoting digestive health” (Vidy Herbs, Inc., priority 2018, dated 2022).

What was measured:
male Sprague Dawley rats [1] = test: gastrointestinal transit (GIT); format: in vivo; conditions: single dose (10 mg/kg), p<0.001
Description: (§1) A composition of asafoetida and milk thistle extract in a ratio of 1:3 was evaluated for effects on gastric emptying and gastrointestinal transit is Sprague-Dawley rats. Twenty-four male Sprague Dawley (SD) rats (190-200 g) were divided into four groups, each group consisted of six animals with less than 20% mean body weight range. Group I served as control group, Group II referenced standard Domiperidone, Groups III and IV were administered the composition. During experimentation, animals were housed under standard husbandry conditions at a temperature of 22±3° C., relative humidity (30-70%) and a light:dark cycle of 12:12 h. […]
All treatments were given for seven days daily in the morning except reference standard and on day 8th after fasted for 16 h all groups were administered with respective doses of the composition or standard drug Domperidone. Gastric emptying was measured by the use of phenol red method as described previously (Kawachi et al. 2011). […] The amount of phenol red in the supernatant was determined based on the absorbance at 570 nm measured using a microplate reader (Multiskan EX, Thermo Scientific). […] Gastric emptying was calculated using the formula: (1−amount of phenol red in the test sample/amount of phenol red in the standard sample)×100. […]
The composition in beadlet form was evaluated for efficacy in alleviating the delayed gastric emptying using an animal model. […]

male Sprague Dawley rats [2] = test: gastric emptying, phenol red method; format: in vivo; conditions: 10 mg/kg orally, 20 minutes after phenol red meal; control 64.94%
Description: as §1
All treatments were given for seven days daily in the morning except reference standard and on day 8th after fasted for 16 h all groups were administered with respective doses of the composition or standard drug Domperidone. Gastric emptying was measured by the use of phenol red method as described previously (Kawachi et al. 2011). […] The amount of phenol red in the supernatant was determined based on the absorbance at 570 nm measured using a microplate reader (Multiskan EX, Thermo Scientific). […] Gastric emptying was calculated using the formula: (1−amount of phenol red in the test sample/amount of phenol red in the standard sample)×100.
The percentage gastric emptying was assessed after 20 minutes of phenol red meal administration in rats. […]

[3] = body weight in the gastric emptying study; format: in vivo, Sprague Dawley rats; conditions: 10 mg/kg orally
Description: A composition of asafoetida and milk thistle extract in a ratio of 1:3 was evaluated for effects on gastric emptying and gastrointestinal transit is Sprague-Dawley rats. Twenty-four male Sprague Dawley (SD) rats (190-200 g) were divided into four groups, each group consisted of six animals with less than 20% mean body weight range. Group I served as control group, Group II referenced standard Domiperidone, Groups III and IV were administered the composition. During experimentation, animals were housed under standard husbandry conditions at a temperature of 22±3° C., relative humidity (30-70%) and a light:dark cycle of 12:12 h. Animals were allowed free access to pellet feed and UV purified water.
Body weights of each animal group were measured at initiation of experiment, on day 7, and fasting on day 8.

Which “GIT compared to control” value (male Sprague Dawley rats [1]) does the source give for `O=c1[nH]c2ccccc2n1CCCN1CCC(n2c(=O)[nH]c3cc(Cl)ccc32)CC1` [Domperidone] here?
The value was “significant increase”.

And the percentage gastric emptying (male Sprague Dawley rats [2])?
The percentage gastric emptying was 78.86%.

And the Body weight ([3]; Day 7)?
Its Body weight is 228.69 ± 12.07 g.

What about the Body weight ([3]; Fasting (Day 8)) of the same compound?
The Body weight was 211.9 ± 11.72 g.

And the Body weight ([3]; Initial)?
Its Body weight is 209.68 ± 9.71 g.
